Assay results published in patent US5891882A, “Benzopyranopyrrole and benzopyranopyridine α-1 adenergic compounds” (priority 1997, dated 1999).
Where a name gives a salt, the structure may show the parent alone. Read-outs that look alike come from different tables or passages of the source.

Key:
[1] = target: T1, α-1a adrenoreceptor (bovine) (Bos taurus, UniProt P18130); assay: In vitro [3H]-prazosin radioligand binding, cloned α-1a adrenoreceptor expressed in LTK cells
T1 construct: expressed in transfected cells; cDNA from TULCO; membranes
T1 sequence (P18130 1-466): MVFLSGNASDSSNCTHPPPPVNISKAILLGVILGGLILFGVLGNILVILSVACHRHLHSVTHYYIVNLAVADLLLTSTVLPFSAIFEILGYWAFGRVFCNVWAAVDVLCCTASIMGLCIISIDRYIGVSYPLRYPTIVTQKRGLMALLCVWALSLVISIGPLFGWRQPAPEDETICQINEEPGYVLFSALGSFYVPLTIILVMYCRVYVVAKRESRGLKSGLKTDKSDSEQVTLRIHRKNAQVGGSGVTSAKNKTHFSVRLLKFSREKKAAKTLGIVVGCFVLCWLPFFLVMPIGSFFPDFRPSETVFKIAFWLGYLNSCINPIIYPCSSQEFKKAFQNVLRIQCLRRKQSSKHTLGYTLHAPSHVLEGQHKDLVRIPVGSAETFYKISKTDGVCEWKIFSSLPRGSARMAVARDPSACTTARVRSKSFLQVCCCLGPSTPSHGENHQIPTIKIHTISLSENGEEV
Description: The cDNA clones encoding the α-1 adrenoreceptors (α-1a, α-1b, and α-1d) were obtained from TULCO (Triangle Universities Licensing Consortium, Research Triangle Park, N.C.) and inserted into the eukaryotic expression vector SnaB30. In this vector, expression of the adrenoreceptor gene is under the transcriptional control of an SV40 early promoter. Positive drug selection is provided by a neomycin-resistance gene. Mouse fibroblast cells (LTK) were transfected with the α1 expression plasmids and grown in Dulbecco's modified Eagle's medium (DMEM) containing 10% fetal calf serum and […]. Stable G418-resistant parental lines were generated, with successful expression of adrenoreceptor protein monitored using radioligand binding techniques. Stable single cell clones derived from the parental lines were screened in adrenoreceptor binding assays to identify clones having high adrenoreceptor density. Roller bottle cultures of the cloned lines were used to provide cell membranes for subsequent adrenoreceptor binding characterization studies. A cell line containing the SnaB30 vector expressing the human erythropoietin gene served as a negative control.
For adrenoreceptor binding assays, large scale membrane preparations were utilized in which 6 million cells were seeded into small (450 cm^2) Corning tissue culture roller bottles. 200 mL of DMEM containing 10% fetal calf serum and 300 μM G418 were added to each roller bottle. A 95% air/5% CO2 gas mixture (sterile) was injected into each roller bottle prior to sealing. The bottles were then incubated at 37° C. on a roller rack for 5 days. Cells were re-fed with fresh medium after 3 days in culture.
On the fifth day of culture, growth medium was removed from cells grown in roller bottles, and the cells were washed twice with PBS (Sigma, 120 mM NaCl, 2.7 mM KCl, 10 mM Na2 HPO4 --NaH2 PO4, pH=7.4). Cells were detached from the roller bottles by incubating for 15 minutes at 37° C. in a Tris-EDTA solution (10 mM Tris, 100 mM NaCl, 1 mM EDTA, pH=7.4). The cell suspension from each roller bottle was decanted into tared centrifuge tubes and kept on ice. An aliquot of each cell suspension was generally taken for cell counting. Cells were centrifuged at 3000×G for 5 min at 2°-4° C., washed with PBS and recentrifuged. The supernatant was decanted and the pellet weighed to determine the wet weight of cells. Cells were washed a final time in 40 vol 5 mM Tris-HCl, 5 mM EDTA, pH=7.7, and centrifuged at 40,000×G for 10 minutes. Cells were homogenized in 10 mL of 50 mM Tris-HCl, 5 mM EDTA (pH=7.4) and diluted to 40 mL/tube. Homogenates were centrifuged at 40,000×G for 10 minutes. The supernatant was decanted and the pellets rehomogenized in 50 mM Tris-HCl (pH=7.4) and centrifuged as before. The supernatant was decanted and the homogenate resuspended in 6.25 volumes (per gram wet weight) of 50 mM Tris-HCl and aliquots of the pooled homogenates frozen in liquid N2 and stored at -70° C. until the time of assay. Rat submaxillary glands were used for α-1A adrenoreceptors and were prepared essentially as described (Michel, A. D., Loury, D. N. and Whiting, R. L., Brit. J. Pharmacol. 98: 83-889 (1989)).
Receptor binding assays for α-1 adrenoreceptors were performed essentially as described by Greengrass and Bremner (Eur. J. Pharmacol. 55: 323-326 (1979)). […] Radioactivity was determined by standard liquid scintillation techniques. Data were analyzed as previously described (Hancock, A. A., Kyncl, J. J., Martin, Y. C. and DeBernardis, J. F., J Receptor Res. 8: 23-46 (1988)).

[2] = target: T2, α-1B adrenoreceptor (rat spleen) (Rattus norvegicus, UniProt P15823); assay: Functional antagonism: inhibition of phenylephrine-induced contraction of rat spleen; type: cell-based
T2 construct: from tissue; host or cells: rat spleen
T2 sequence (P15823 1-515): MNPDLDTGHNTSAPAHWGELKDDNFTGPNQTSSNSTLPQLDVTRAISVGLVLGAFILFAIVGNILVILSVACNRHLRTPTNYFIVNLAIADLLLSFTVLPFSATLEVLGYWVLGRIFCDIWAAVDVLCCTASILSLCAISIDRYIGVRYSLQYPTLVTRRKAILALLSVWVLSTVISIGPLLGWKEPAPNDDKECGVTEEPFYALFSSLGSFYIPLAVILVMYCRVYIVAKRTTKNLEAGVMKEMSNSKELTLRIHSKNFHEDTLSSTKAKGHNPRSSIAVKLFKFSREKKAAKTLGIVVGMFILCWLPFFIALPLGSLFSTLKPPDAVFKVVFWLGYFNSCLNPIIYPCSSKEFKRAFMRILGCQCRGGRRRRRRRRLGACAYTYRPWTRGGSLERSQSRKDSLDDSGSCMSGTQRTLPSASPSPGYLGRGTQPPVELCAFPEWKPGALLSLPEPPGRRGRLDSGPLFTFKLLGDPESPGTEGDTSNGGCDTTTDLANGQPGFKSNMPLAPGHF
Description: Functional assays indicative of pharmacologically defined α-1 adrenoreceptors were used to further characterize compounds. Inhibition of phenylephrine (PE)-induced contraction of canine prostate smooth muscle can be correlated with α-1A adrenoreceptor activation. […] For each of these models, agonist dose response curves were repeated against increasing concentrations of test agent to derive a Schild plot [log ([…]) against log (molarity of test agent)] to determine the pA2.

[3] = cloned bovine α-1a in LTK cells, [3H]prazosin 0.2 nM, read-out: Radioligand Binding (Ki; nM) 1a (Bovine)

| Ki [1, 3] [nM] | In Vitro Characterization (pA2) Rat Spleen ([2]; rat spleen, phenylephrine-induced contraction, Schild plot) | Structure (SMILES) | Ki [1] [nM] | Kb [2] [nM] |
| --- | --- | --- | --- | --- |
| 0.066 |  | COc1cc2[nH]c(=O)n(CCN3CC[C@H]4c5c(OC)cccc5OC[C@@H]4C3)c(=O)c2cc1OC (relative stereo) [Example 91, 3-[2-((±)-trans-10-Methoxy-1,3,4,4a,5,10b-hexahydro-2H-[1]-benzopyrano[3,4-c]pyrido-3-yl)ethyl]-6,7-dimethoxy-quinazoline-2,4(1H,3H)-dione hydrochloride] |  |  |
|  |  | COc1cccc2c1[C@@H]1CCN(CCCCn3c(=O)[nH]c4c(sc5ccccc54)c3=O)C[C@H]1CO2 (relative stereo) [Example 87, 3-[4-((±)-trans-10-Methoxy-1,3,4,4a,5,10b-hexahydro-2H-[1]-benzopyrano[3,4-c]pyrido-3-yl)butyl]-[1]-benzthieno[3,2-d]pyrimidine-2,4(1H,3H)-dione hydrochloride] | 0.227 | 72.4 |
|  |  | COc1cccc2c1[C@@H]1CCN(CCCCn3c(=O)[nH]c4c(sc5cccnc54)c3=O)C[C@H]1CO2 (relative stereo) [Example 88, 3-[4-((±)-trans-10-Methoxy-1,3,4,4a,5,10b-hexahydro-2H-[1]-benzopyrano[3,4-c]pyrido-3-yl)butyl]-pyrido[2',3':4,5]thieno[3,2-d]pyrimidine-2,4(1H,3H)-dione hydrochloride] | 0.11 | 72.4 |
| 0.082 | 7.83 | COc1ccc2c(n1)sc1c(=O)n(CCCCN3C[C@@H]4COc5cccc(OC)c5[C@@H]4C3)c(=O)[nH]c12 [Example 33, hydrochloride] |  |  |
